Data taken from PubChem BioAssay (NCI).
Where “and” joins values, the source holds several entries; their conditions need not be identical. Equal values may be shown once.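 48-hour exposure; five concentrations; linearly interpolated endpoints. GI50 is the concentration that inhibits growth by half. Definition used: TGI = concentration required for complete inhibition of growth.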

Columns and labels:
Experiment in all cases: NCI anticancer screen, dose series, 48 h
SK-MEL-5 melanoma = system: SK-MEL-5 melanoma
NCI-H23 lung = system: NCI-H23 lung
HT29 colon = system: HT29 colon
HS 578T breast = system: HS 578T breast
SF-539 CNS = system: SF-539 CNS
ACHN renal = system: ACHN renal
MOLT-4 leukemia = system: MOLT-4 leukemia
786-0 renal = system: 786-0 renal
OVCAR-4 ovarian = system: OVCAR-4 ovarian
MALME-3M melanoma = system: MALME-3M melanoma

SMILES	TGI (SK-MEL-5 melanoma) [µM]	TGI (NCI-H23 lung) [µM]	GI50 (HT29 colon)	TGI (HT29 colon) [µM]	TGI (HS 578T breast) [µM]	TGI (SF-539 CNS)	TGI (ACHN renal) [µM]	TGI (MOLT-4 leukemia)	GI50 (786-0 renal)	TGI (786-0 renal) [µM]	TGI (OVCAR-4 ovarian) [µM]	GI50 (SK-MEL-5 melanoma) [µM]	GI50 (NCI-H23 lung) [µM]	GI50 (HS 578T breast) [µM]	GI50 (SF-539 CNS) [µM]	GI50 (ACHN renal) [µM]	TGI (MALME-3M melanoma) [µM]	GI50 (MALME-3M melanoma) [µM]	GI50 (MOLT-4 leukemia) [µM]	GI50 (OVCAR-4 ovarian) [µM]
O=C1OC(c2ccccc2)=N/C1=C\c1ccccc1	> 100	> 100	> 100 µM and 32.8 µM	> 100	> 100	55.2 µM and 40.8 µM	> 100	85.5 µM and > 100 µM	44.6 µM and > 100 µM	> 100	> 100	–	–	–	–	–	–	–	–	–
COc1ccccc1NC(=O)c1sc2ncn(CCOc3ccccc3)c(=O)c2c1C	4.2	> 50	–	–	4.1	12.2 µM	> 50	–	> 50 µM	> 50	–	1.15	4.93	1.37	2.77	6.01	–	–	–	–
CCCCCCNC(=O)CCN(C(=O)O)S(=O)(=O)c1ccc(NC(=O)c2ccccc2)cc1	> 100	> 100	–	> 100	–	38.4 µM	> 100	> 60.1 µM	–	> 100	> 100	–	–	–	–	–	> 100	–	–	–
CC(=O)[CH-]C(=O)c1ccccc1.CC(=O)[CH-]C(=O)c1ccccc1.Cl.[O-]CCc1ccccn1.[O-]CCc1ccccn1.[Ti+4]	53.6	53.8	22.4 µM	77.1	–	88 µM	> 100	49.3 µM	21.2 µM	57	> 100	20	24.7	–	29.8	33.4	44.1	18.7	13.3	41.4
Nc1ncc(CN2CCCC2)c(-c2ccccc2O)n1	> 750	> 750	–	> 750	–	> 750 µM	> 750	> 750 µM	–	> 750	> 750	–	–	–	–	–	> 750	–	–	–
C=C(C)[C@@H]1CC[C@]2(C(=O)O)CC[C@]3(C)[C@H](CC[C@@H]4[C@@]5(C)CCC(N)C(C)(C)[C@@H]5CC[C@]43C)[C@@H]12 (stereo not given in full)	–	–	–	–	5.38	3.02 µM	5.32	–	1.59 µM	3.07	> 100	–	–	2.48	1.59	2.2	3.22	1.56	–	2.79
CCCCCCCCCC(=O)Oc1ccc(/C(=C(/C)c2ccccc2)c2ccc(OCCN3CCCC3)cc2)cc1	14.9	16.1	–	–	32.2	16.9 µM	15.5	20.3 µM	8.77 µM	16.8	14.9	8.13	7.74	9.55	8.7	8.16	15.7	7.76	8.61	7.39
NN=C1/C(=C\c2ccccc2)CCC/C1=C/c1ccccc1	–	> 100	–	–	–	> 100 µM	> 100	37.4 µM	–	> 100	> 100	–	–	–	–	–	81.1	–	–	–
NC1(C(=O)O)CCC(C(=O)O)CC1 (stereo not given)	> 100	> 100	–	> 100	–	> 100 µM	> 100	> 100 µM	–	> 100	> 100	–	–	–	–	–	> 100	–	–	–
